We go through nine molecules from US20240315992A1, “AMINOXY ACID-BASED ANTIBACTERIAL COMPOUNDS AND METHODS THEREOF” (The University of Hong Kong, priority 2023, published 2024).

Molecules are shown by their SMILES. Converted amounts (≈) assume the structure as drawn. Some results are limits rather than exact numbers.

The first test concerns multidrug resistant Staphylococcus aureus Mu3. The test is described as follows: MIC by CLSI broth micro-dilution, MRSA Mu3. The format is cell-based. Particulars: MRSA, CLSI broth micro-dilution, CAMH, read-out: Minimum inhibitory concentration (μM) in MRSA Mu3. The protocol: Aminoxy acids were synthesized by the standard peptide coupling procedures. Minimum inhibitory concentration was determined using CLSI broth micro-dilution method in 96-wells microtitre plates. Minimum inhibitory concentration is defined as the lowest concentration of the compound that inhibits visible growth of the bacteria. All experiments were performed three times. 24 compounds including aminoxy acid monomers and dipeptides have been identified to show toxicity against multidrug resistant Staphylococcus aureus Mu3 and summarized in Table 1. The minimum inhibitory concentration of compound 8 and compound 35 on other gram-positive bacteria was also evaluated and summarized in Table 2. […] As shown in FIGS. 3A-3B there are no observable hemolysis for compound 8 and compound 35 towards human red blood cell.
Bacteria were streaked from the glycerol stock into BHI agar and were incubated overnight. Single colony was picked for the overnight culture in cation-adjusted Mueller Hinton broth (CAMH), LB or BHI. The overnight culture was sub-cultured and regrew to exponential phase for the experiment.
MIC was determined by CLSI broth micro-dilution method in 96-wells microtitre plates. For compounds dissolved in water, 100 μL of 2× testing concentration was added to the first well of each column, followed by two-fold serial dilution for successive wells with 50 μL medium. For chemical compounds dissolved in DMSO, the compounds were two-fold serial diluted by DMSO in a DMSO-compatible 96-well plate. 1 μL of compound in DMSO was transferred into 96-wells microtitre plate containing 50 μL medium to give 2× testing concentration. An overnight culture of bacteria was grown into exponential phase. The bacteria culture was diluted to 1×10^6 CFU/mL and 50 μL of diluted culture were added into each well. The test plates were kept in a 37° C. incubator overnight. Optical density was recorded by DTX 880 multimode detector (Beckman Coulter, California, US). MIC is defined as the lowest concentration of the compound that inhibits visible growth of bacteria. Biological replicates were performed. CAMH was used for bacteria culture and MIC test except S. pneumoniae, L. monocytogenes, E. faecalis and M. smegmatis for which BHI was used as culture medium
In general terms: In broth dilution the organism is exposed to a series of concentrations in liquid medium.
With `CC(C)C[C@H](ONC(=O)[C@@H](COCc1ccccc1)ONC(=O)c1cc(C(F)(F)F)cc(C(F)(F)F)c1)C(=O)NCc1ccccc1` [Compound 30], the MIC was above 12.5 µM.

Consider `CC(C)(C)OC(=O)NCCCC[C@@H](ONC(=O)[C@@H](COCc1ccccc1)ONC(=O)c1cc(C(F)(F)F)cc(C(F)(F)F)c1)C(=O)Nc1ccccc1` [Compound 19], for which the MIC amounted to 12.5 µM (≈ 9.63 µg/mL).

Take `CC(C)C[C@@H](ONC(=O)c1cc(C(F)(F)F)cc(C(F)(F)F)c1)C(=O)Nc1ccccc1` [Compound 3]: the MIC came to 3.13 µM (≈ 1.45 µg/mL).

Turning to `CC(C)C[C@H](ONC(=O)[C@@H](COCc1ccccc1)NC(=O)c1cc(C(F)(F)F)cc(C(F)(F)F)c1)C(=O)Nc1ccccc1` [Compound 57], the MIC is above 12.5 µM.

`CC(C)C[C@H](ONC(=O)[C@@H](COCc1ccccc1)ONS(=O)(=O)c1cc(C(F)(F)F)cc(C(F)(F)F)c1)C(=O)Nc1ccc2c(c1)OC(F)(F)O2` [Compound 55]: the MIC is above 12.5 µM.

Consider `CC(C)C[C@H](ONC(=O)[C@@H](COCc1ccccc1)ONC(=O)c1cc(C(F)(F)F)cc(C(F)(F)F)c1)C(=O)NOCc1ccccc1` [Compound 40], for which the MIC was above 12.5 µM.

Consider `O=C(NO[C@H](COCc1ccccc1)C(=O)Nc1ccccc1)c1cc(C(F)(F)F)cc(C(F)(F)F)c1` [Compound 2], for which the MIC was 6.25 µM (≈ 3.29 µg/mL).

Regarding `CC(C)C[C@H](ONC(=O)[C@H](COCc1ccccc1)ONC(=O)c1cc(C(F)(F)F)cc(C(F)(F)F)c1)C(=O)Nc1ccccc1` [Compound 6], the MIC worked out at 3.13 µM (≈ 2.05 µg/mL).

Turning to `CC(C)C[C@H](ONC(=O)[C@@H](COCc1ccccc1)ONC(=O)c1cc(C(F)(F)F)cc(C(F)(F)F)c1)C(=O)Nc1ccc(C(F)(F)F)cc1` [Compound 38], the MIC is 1.56 µM (≈ 1.13 µg/mL).

In the next test the test system is Staphylococcus aureus strain USA300-LAC. The experiment in a line: Non-lethal bacteremia model, bacteria loads in organs. The format is in vivo, Balb/c mice. Particulars: 10 mg/kg/day intraperitoneal, 4 days. The protocol: FIG. 9 are the bar graphs showing compound 8 and compound 35 reduce bacteria loads in different organs of the mice infected by Staphylococcus aureus. Grubb's test was performed to test for outliers. Statistical analysis was performed with two-sided paired t test. (*p<0.05).
Staphylococcus aureus strain USA300-LAC were cultured to the early exponential phase of growth, washed twice with sterile phosphate-buffered saline solution (PBS), and resuspended in PBS at 5×10^6 CFU/200 μL for non-lethal bacteremia model. The female Balb/c mice, 6-8 weeks, were infected intravenously (i.v.) through the tail vein with Staphylococcus aureus and randomized into three groups (N=14 for vehicle; N=12 for compound 8 and compound 35 respectively). One hour after infection, mice received intraperitoneal injections of compound 8 or compound 35 (10 mg/kg/day) or an injection of buffer (PBS with 2.5% DMSO and 2% Tween-80) as the control. The compound and injection buffer treatments were performed twice per day at 12-h intervals. The challenged mice were monitored for 4 days, at which point all the remaining mice were sacrificed. The CFU of S. aureus were determined in heart, liver, kidney and lung by plating in series dilution. Grubb's test was performed to test for outliers. Statistical analysis was performed with two-sided paired t test. (*p<0.05).
For the molecule `CC(C)C[C@H](ONC(=O)[C@@H](COCc1ccccc1)ONC(=O)c1cc(C(F)(F)F)cc(C(F)(F)F)c1)C(=O)NCc1ccccc1` [Compound 30], the “bacteria load in heart” value is “can reduce the bacteria load”, the “bacteria load in liver” value is on record as “can reduce the bacteria load” and the “bacteria load in lung” value is given as “can reduce the bacteria load”.
